For 4 molecules, IC50 results are on record in patent publication US12421191B2, “3-hydroxyoxindole derivatives as CRHR2 antagonist” (RaQualia Pharma Inc., priority 2020, dated 2025).

One may read the pIC50 as the negative decadic logarithm of the IC50, by convention in mol/L.

pIC50: −log10 of the molar value.

In this test the target is T1, human CRHR2-alpha (Homo sapiens, UniProt Q13324).
T1 construct: host or cells: CHO-K1
T1 sequence (Q13324 1-411): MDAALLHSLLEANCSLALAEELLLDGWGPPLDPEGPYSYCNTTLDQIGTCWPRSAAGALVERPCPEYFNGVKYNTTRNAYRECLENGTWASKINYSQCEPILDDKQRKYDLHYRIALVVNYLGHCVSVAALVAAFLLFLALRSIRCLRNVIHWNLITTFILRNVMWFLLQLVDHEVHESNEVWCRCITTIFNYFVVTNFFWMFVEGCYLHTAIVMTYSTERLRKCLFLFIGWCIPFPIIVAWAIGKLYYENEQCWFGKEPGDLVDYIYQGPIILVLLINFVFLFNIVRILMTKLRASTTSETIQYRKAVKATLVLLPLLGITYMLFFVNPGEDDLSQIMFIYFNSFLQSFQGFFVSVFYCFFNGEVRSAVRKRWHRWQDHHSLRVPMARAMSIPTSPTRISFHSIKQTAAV
The test can be described thus: cAMP functional assay for human CRHR2 (LANCE Ultra TR-FRET). In kind it is cell-based. To be noted: inhibition of cAMP production in CHO-K1 cells stably expressing human CRHR2-alpha, EC90 of human urocortin2 as agonist; read-out: IC50 against CRHR2. Put shortly: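 CHO-K1 cells stably expressing CRHR2-alpha, serum-starved 7 h and cryopreserved, preincubated with compound 30 min at 25° C in HBSS with 0.1% BSA, 0.5 mM IBMX, 5 mM Hepes pH 7.4. EC90 human urocortin2 added for 30 min at 25° C; cAMP read by TR-FRET; IC50 from percent-inhibition curves.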
With `O=C(N[C@H]1CC[C@H](CN2C(=O)C(O)(c3ccccc3F)c3ccc(Cl)cc32)CC1)c1cc(Cl)cnc1C(F)F` (stereo partly shown) [Example 170, 5-chloro-N-((1r,4r)-4-((6-chloro-3-(2-fluorophenyl)-3-hydroxy-2-oxoindolin-1-yl)methyl)cyclohexyl)-2-(difluoromethyl)nicotinamide], the pIC50 is above 6.70. For the molecule `O=C(N[C@H]1CC[C@H](CN2C(=O)C(O)(c3cc(F)cs3)c3ccccc32)CC1)c1cc(Cl)cnc1C(F)F` (stereo partly shown) [Example 98, 5-chloro-2-(difluoromethyl)-N-((1r,4r)-4-((3-(4-fluorothiophen-2-yl)-3-hydroxy-2-oxoindolin-1-yl)methyl)cyclohexyl) nicotinamide], the pIC50 is above 6.70.

Take `Cc1cccc2c1C(O)(c1ccc(F)cn1)C(=O)N2C[C@H]1CC[C@H](NC(=O)c2cc(Cl)cnc2C(F)F)CC1` (stereo partly shown) [Example 178]: the pIC50 is above 6.70.

As to `COc1ccc(C2(O)C(=O)N(C[C@H]3CC[C@H](NC(=O)c4cc(Cl)cnc4C(F)F)CC3)c3ccccc32)c(F)c1` (stereo partly shown) [Example 54, 5-chloro-2-(difluoromethyl)-N-((1r,4r)-4-((3-(2-fluoro-4-methoxyphenyl)-3-hydroxy-2-oxoindolin-1-yl)methyl)cyclohexyl) nicotinamide], the pIC50 is above 6.70.
